Measurements taken from BindingDB's records for doi:10.1016/s0960-894x(02)00639-x (Monash University (Parkville Campus), 2002).

Key:
[1] = Equilibrium dissociation constant for [3H]DPCPX binding to Adenosine A1 receptor from DDT1 MF2 cell membranes
[2] = as above; remark: listed apart in the source
[3] = Inhibitory concentration against [3H]DPCPX binding to Adenosine A1 receptor from DDT1 MF2 cells

CCCn1c(=O)c2[nH]c(C3CCCC3)nc2n(CCCCC(=O)c2ccc(S(=O)(=O)F)cc2)c1=O [4-[5-(8-Cyclopentyl-2,6-dioxo-1-propyl-1,2,6,7-tetrahydro-purin-3-yl)-pentanoyl]-benzenesulfonyl fluoride]
Kd [1]: 0.53 nM | IC50 [2]: 8.7 nM

CCCn1c(=O)c2[nH]c(C3CCCCC3)nc2n(CCCCC(=O)c2ccc(S(=O)(=O)F)cc2)c1=O [4-[5-(8-Cyclohexyl-2,6-dioxo-1-propyl-1,2,6,7-tetrahydro-purin-3-yl)-pentanoyl]-benzenesulfonyl fluoride]
IC50 [3]: 17 nM

CCCn1c(=O)c2[nH]c(C3CC4CCC3C4)nc2n(CCCCC(=O)c2ccc(S(=O)(=O)F)cc2)c1=O (stereo not given) [4-[5-(8-Bicyclo[2.2.1]hept-2-yl-2,6-dioxo-1-propyl-1,2,6,7-tetrahydro-purin-3-yl)-pentanoyl]-benzenesulfonyl fluoride]
IC50 [3]: 3.9 nM | Kd [1]: 0.53 nM
